Assay results taken from PubChem BioAssay (NCI).
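Grown in 96-well plates, cells were treated for 48 hours with each compound at five concentrations. Insufficient inhibition: endpoint recorded as highest concentration tested. GI50 is the concentration that inhibits growth by half. The concentration for full growth arrest is given as TGI.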

Legend:
Test in all cases: NCI anticancer screen, dose series, 48 h; in the data active = GI50 below about 0.43 µM; inactive = the rest
NCI-H522 lung = test system: NCI-H522 lung
SK-MEL-5 melanoma = test system: SK-MEL-5 melanoma
SF-268 CNS = test system: SF-268 CNS
NCI-H23 lung = test system: NCI-H23 lung
RXF 393 renal = test system: RXF 393 renal
TK-10 renal = test system: TK-10 renal
SK-MEL-28 melanoma = test system: SK-MEL-28 melanoma
786-0 renal = test system: 786-0 renal
COLO 205 colon = test system: COLO 205 colon
MCF7 breast = test system: MCF7 breast
HCT-116 colon = test system: HCT-116 colon
DU-145 prostate = test system: DU-145 prostate
HL-60(TB) leukemia = test system: HL-60(TB) leukemia
U251 CNS = test system: U251 CNS
SN12C renal = test system: SN12C renal
UO-31 renal = test system: UO-31 renal
CCRF-CEM leukemia = test system: CCRF-CEM leukemia
MDA-MB-435 = test system: MDA-MB-435
HCT-15 colon = test system: HCT-15 colon
KM12 colon = test system: KM12 colon
SF-539 CNS = test system: SF-539 CNS
OVCAR-4 ovarian = test system: OVCAR-4 ovarian
MALME-3M melanoma = test system: MALME-3M melanoma
A549 NSCLC = test system: A549 NSCLC
NCI-H460 lung = test system: NCI-H460 lung
PC-3 prostate = test system: PC-3 prostate
MDA-MB-231 breast = test system: MDA-MB-231 breast
OVCAR-3 ovarian = test system: OVCAR-3 ovarian
OVCAR-8 ovarian = test system: OVCAR-8 ovarian
SK-OV-3 ovarian = test system: SK-OV-3 ovarian
ACHN renal = test system: ACHN renal
LOX IMVI melanoma = test system: LOX IMVI melanoma
SF-295 CNS = test system: SF-295 CNS
SK-MEL-2 melanoma = test system: SK-MEL-2 melanoma
SNB-75 CNS = test system: SNB-75 CNS
UACC-62 melanoma = test system: UACC-62 melanoma
CAKI-1 renal = test system: CAKI-1 renal
T-47D breast = test system: T-47D breast
SR leukemia = test system: SR leukemia
SW-620 colon = test system: SW-620 colon
MOLT-4 leukemia = test system: MOLT-4 leukemia
M14 melanoma = test system: M14 melanoma
NCI/ADR-RES ovarian = test system: NCI/ADR-RES ovarian
IGROV1 ovarian = test system: IGROV1 ovarian
HS 578T breast = test system: HS 578T breast
SNB-19 CNS = test system: SNB-19 CNS
HOP-92 NSCLC = test system: HOP-92 NSCLC
UACC-257 melanoma = test system: UACC-257 melanoma
NCI-H226 lung = test system: NCI-H226 lung
BT-549 breast = test system: BT-549 breast
K-562 leukemia = test system: K-562 leukemia
EKVX NSCLC = test system: EKVX NSCLC
A498 renal = test system: A498 renal
HOP-62 NSCLC = test system: HOP-62 NSCLC
OVCAR-5 ovarian = test system: OVCAR-5 ovarian
HCC-2998 colon = test system: HCC-2998 colon
HT29 colon = test system: HT29 colon
RPMI-8226 leukemia = test system: RPMI-8226 leukemia

O=[N+]([O-])c1ccc2c(c1)c(N=NC(=S)Nc1ccc(Cl)cc1)c(O)n2CN1CCOCC1
23.8 µM: TGI (LOX IMVI melanoma)
23.2 µM: TGI (NCI-H522 lung)
26.5 µM: TGI (UACC-257 melanoma)
24 µM: TGI (KM12 colon)
24.5 µM: TGI (TK-10 renal)
25.8 µM: TGI (SNB-75 CNS)
18.3 µM: TGI (SF-295 CNS)
26.6 µM: TGI (SK-MEL-28 melanoma)
11.5 µM: TGI (HL-60(TB) leukemia)
2.97 µM: TGI (MOLT-4 leukemia)
30.6 µM: TGI (MDA-MB-231 breast)
21.6 µM: TGI (OVCAR-4 ovarian)
16.5 µM: TGI (SF-268 CNS)
16.4 µM: TGI (ACHN renal)
9.44 µM: TGI (NCI-H23 lung)
20.1 µM: TGI (U251 CNS)
8.44 µM: TGI (SR leukemia)
21.9 µM: TGI (PC-3 prostate)
21.7 µM: TGI (M14 melanoma)
15.7 µM: TGI (HCT-116 colon) | TGI (SN12C renal) | TGI (UO-31 renal)
19.2 µM: TGI (MDA-MB-435)
30.8 µM: TGI (SW-620 colon)
26.2 µM: TGI (SK-OV-3 ovarian)
20.8 µM: TGI (A549 NSCLC) | TGI (T-47D breast) | TGI (SNB-19 CNS)
16.7 µM: TGI (786-0 renal)
11.4 µM: TGI (HCT-15 colon)
28 µM: TGI (CCRF-CEM leukemia)
5.9 µM: TGI (NCI/ADR-RES ovarian)
17.7 µM: TGI (SK-MEL-5 melanoma) | TGI (UACC-62 melanoma)
18.8 µM: TGI (MCF7 breast) | TGI (MALME-3M melanoma)
22.2 µM: TGI (DU-145 prostate)
17.6 µM: TGI (OVCAR-3 ovarian)
20.3 µM: TGI (NCI-H460 lung)
19.9 µM: TGI (RXF 393 renal)
27.8 µM: TGI (COLO 205 colon)
23.4 µM: TGI (OVCAR-8 ovarian)
26.3 µM: TGI (SK-MEL-2 melanoma)
12.4 µM: TGI (CAKI-1 renal)
28.4 µM: TGI (HS 578T breast)
23.7 µM: TGI (NCI-H226 lung)
21.2 µM: TGI (HOP-92 NSCLC)
26.4 µM: TGI (SF-539 CNS)
18.1 µM: TGI (IGROV1 ovarian)

N=C(N)c1ccc(-c2ccc(-c3cc(Cl)cc(Cl)c3)s2)s1
inactive: GI50 (BT-549 breast) 4.37 µM | GI50 (SK-OV-3 ovarian) 3.62 µM | GI50 (CAKI-1 renal) 1.72 µM | GI50 (HS 578T breast) 2.15 µM | GI50 (NCI-H226 lung) 30.8 µM
17.1 µM: TGI (SK-OV-3 ovarian)
65.4 µM: TGI (NCI-H226 lung)
3.35 µM: TGI (CAKI-1 renal)
> 100 µM: TGI (BT-549 breast)
5 µM: TGI (HS 578T breast)

O=C1c2ccccc2-c2c1c1ccccc1c(=O)n2CCNCCn1c2c(c3ccccc3c1=O)C(=O)c1ccccc1-2
active: GI50 (SNB-19 CNS) 0.333 µM
16.2 µM: TGI (K-562 leukemia)
12.8 µM: TGI (MOLT-4 leukemia)
> 25 µM: TGI (NCI-H522 lung) | TGI (SK-MEL-5 melanoma) | TGI (SF-268 CNS) | TGI (NCI-H23 lung) | TGI (RXF 393 renal) | TGI (TK-10 renal) | TGI (786-0 renal) | TGI (COLO 205 colon) | TGI (MCF7 breast) | TGI (HCT-116 colon) | TGI (BT-549 breast) | TGI (DU-145 prostate) | TGI (U251 CNS) | TGI (SN12C renal) | TGI (UO-31 renal) | TGI (MDA-MB-435) | TGI (HCT-15 colon) | TGI (KM12 colon) | TGI (SF-539 CNS) | TGI (MALME-3M melanoma) | TGI (A549 NSCLC) | TGI (NCI-H460 lung) | TGI (MDA-MB-231 breast) | TGI (EKVX NSCLC) | TGI (OVCAR-3 ovarian) | TGI (A498 renal) | TGI (OVCAR-8 ovarian) | TGI (ACHN renal) | TGI (LOX IMVI melanoma) | TGI (SF-295 CNS) | TGI (SK-MEL-2 melanoma) | TGI (UACC-62 melanoma) | TGI (CAKI-1 renal) | TGI (SW-620 colon) | TGI (M14 melanoma) | TGI (NCI/ADR-RES ovarian) | TGI (IGROV1 ovarian) | TGI (HS 578T breast) | TGI (SNB-19 CNS) | TGI (HOP-62 NSCLC) | TGI (UACC-257 melanoma) | TGI (OVCAR-5 ovarian) | TGI (NCI-H226 lung)
inactive: GI50 (NCI-H522 lung) > 25 µM | GI50 (SK-MEL-5 melanoma) > 25 µM | GI50 (SF-268 CNS) > 25 µM | GI50 (NCI-H23 lung) > 25 µM | GI50 (RXF 393 renal) > 25 µM | GI50 (TK-10 renal) > 25 µM | GI50 (786-0 renal) 12.2 µM | GI50 (COLO 205 colon) 2.2 µM | GI50 (MCF7 breast) > 25 µM | GI50 (K-562 leukemia) 5.42 µM | GI50 (HCT-116 colon) > 25 µM | GI50 (BT-549 breast) > 25 µM | GI50 (DU-145 prostate) > 25 µM | GI50 (U251 CNS) > 25 µM | GI50 (SN12C renal) > 25 µM | GI50 (UO-31 renal) > 25 µM | GI50 (MDA-MB-435) > 25 µM | GI50 (HCT-15 colon) > 25 µM | GI50 (KM12 colon) > 25 µM | GI50 (SF-539 CNS) > 25 µM | GI50 (MALME-3M melanoma) > 25 µM | GI50 (A549 NSCLC) > 25 µM | GI50 (NCI-H460 lung) > 25 µM | GI50 (MDA-MB-231 breast) 18.2 µM | GI50 (EKVX NSCLC) > 25 µM | GI50 (OVCAR-3 ovarian) > 25 µM | GI50 (A498 renal) > 25 µM | GI50 (OVCAR-8 ovarian) > 25 µM | GI50 (ACHN renal) > 25 µM | GI50 (LOX IMVI melanoma) > 25 µM | GI50 (SF-295 CNS) > 25 µM | GI50 (SK-MEL-2 melanoma) > 25 µM | GI50 (UACC-62 melanoma) > 25 µM | GI50 (CAKI-1 renal) > 25 µM | GI50 (SW-620 colon) > 25 µM | GI50 (MOLT-4 leukemia) 4.84 µM | GI50 (M14 melanoma) > 25 µM | GI50 (NCI/ADR-RES ovarian) > 25 µM | GI50 (IGROV1 ovarian) > 25 µM | GI50 (HS 578T breast) > 25 µM | GI50 (HOP-62 NSCLC) > 25 µM | GI50 (UACC-257 melanoma) > 25 µM | GI50 (OVCAR-5 ovarian) > 25 µM | GI50 (NCI-H226 lung) > 25 µM

Cc1c2c(cc[n+]1Cc1ccc(F)cc1)c1ccc(OCc3cccc(F)c3)cc1n2Cc1cccc(F)c1
5.55 µM: TGI (CAKI-1 renal)
inactive: GI50 (SK-OV-3 ovarian) 1.81 µM | GI50 (CAKI-1 renal) 2.02 µM | GI50 (NCI/ADR-RES ovarian) 8.62 µM
3.28 µM: TGI (SK-OV-3 ovarian)
> 100 µM: TGI (NCI/ADR-RES ovarian)

Cc1cccc(N=Nc2ccc(N=Nc3c(O)ccc4ccccc34)cc2C)c1
37.8 µM: TGI (SNB-75 CNS)
49.5 µM: TGI (SR leukemia)
60.3 µM: TGI (OVCAR-8 ovarian)
> 100 µM: TGI (SK-MEL-5 melanoma) | TGI (SF-268 CNS) | TGI (NCI-H23 lung) | TGI (RXF 393 renal) | TGI (TK-10 renal) | TGI (SK-MEL-28 melanoma) | TGI (786-0 renal) | TGI (COLO 205 colon) | TGI (MCF7 breast) | TGI (K-562 leukemia) | TGI (HCT-116 colon) | TGI (BT-549 breast) | TGI (HL-60(TB) leukemia) | TGI (U251 CNS) | TGI (UO-31 renal) | TGI (HCC-2998 colon) | TGI (CCRF-CEM leukemia) | TGI (MDA-MB-435) | TGI (HCT-15 colon) | TGI (HT29 colon) | TGI (KM12 colon) | TGI (SF-539 CNS) | TGI (OVCAR-4 ovarian) | TGI (A549 NSCLC) | TGI (NCI-H460 lung) | TGI (PC-3 prostate) | TGI (MDA-MB-231 breast) | TGI (EKVX NSCLC) | TGI (OVCAR-3 ovarian) | TGI (ACHN renal) | TGI (SF-295 CNS) | TGI (SK-MEL-2 melanoma) | TGI (UACC-62 melanoma) | TGI (CAKI-1 renal) | TGI (SW-620 colon) | TGI (MOLT-4 leukemia) | TGI (M14 melanoma) | TGI (RPMI-8226 leukemia) | TGI (IGROV1 ovarian) | TGI (HS 578T breast) | TGI (SNB-19 CNS) | TGI (HOP-92 NSCLC) | TGI (UACC-257 melanoma) | TGI (OVCAR-5 ovarian) | TGI (NCI-H226 lung)
50.7 µM: TGI (NCI/ADR-RES ovarian)
89.6 µM: TGI (HOP-62 NSCLC)
92.4 µM: TGI (SK-OV-3 ovarian)
37.6 µM: TGI (NCI-H522 lung)
5.34 µM: TGI (MALME-3M melanoma)
